Measurements published in US7326768B2, “Goodpasture antigen-binding protein isoforms and protein misfolded-mediated disorders” (priority 2003, dated 2008).
“Also recorded” adds a separate entry of the source. Ends that are not written are not given here.

What was measured:
[1] = system: α3(IV)NC1-expressing cells (HEK293); test: α3(IV)NC1 conformer production in cultured cells (Western blot of culture media); assay type: cell-based, human; conditions: synthetic peptides 100-200 μM, organic compounds 5-50 μM, 24-48 h
CaM kinase II [2] = conditions: known; cited from earlier work
recombinant human GPBP [3] = target: T1, recombinant human GPBP (Homo sapiens, UniProt Q9Y5P4); test: In vitro phosphorylation: GPBP kinase activity / autophosphorylation; conditions: for GPBP kinase activity in vitro (autophosphorylation): modulators at 200 μM, 10 min autophosphorylation reaction
T1 sequence (Q9Y5P4 1-624): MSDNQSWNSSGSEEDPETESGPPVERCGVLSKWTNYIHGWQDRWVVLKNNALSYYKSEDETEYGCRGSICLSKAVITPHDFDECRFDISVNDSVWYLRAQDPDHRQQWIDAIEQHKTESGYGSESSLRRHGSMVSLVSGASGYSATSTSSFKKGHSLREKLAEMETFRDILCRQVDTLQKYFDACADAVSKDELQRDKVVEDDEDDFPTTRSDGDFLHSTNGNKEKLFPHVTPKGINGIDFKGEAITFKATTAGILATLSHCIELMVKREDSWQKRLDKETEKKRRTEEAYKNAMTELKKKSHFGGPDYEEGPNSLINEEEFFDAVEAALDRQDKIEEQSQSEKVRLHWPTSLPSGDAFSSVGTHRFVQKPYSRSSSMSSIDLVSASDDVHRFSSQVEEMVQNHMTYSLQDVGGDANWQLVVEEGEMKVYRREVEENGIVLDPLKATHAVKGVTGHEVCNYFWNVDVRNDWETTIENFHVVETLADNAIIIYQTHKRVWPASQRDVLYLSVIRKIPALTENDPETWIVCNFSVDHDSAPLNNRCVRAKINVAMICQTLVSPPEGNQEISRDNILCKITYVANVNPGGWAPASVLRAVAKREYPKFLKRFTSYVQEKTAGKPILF

recombinant human GPBP [4] = target: T1, recombinant human GPBP; test: Far Western blot with recombinant GPBP; assay type: binding; parameters: FLAG; made in house; host or cells: yeast; conditions: 1 μg peptide
NZW mice = test: Degenerative glomerulopathy in NZW mice (histochemical studies of kidney); assay type: in vivo
CaM kinase II [5] = test: CaM kinase II inhibition; assay type: biochemical
[6] = NZW treated with DAB-Am-4 and peptide

Row | Molecule | α3(IV)NC1 conformer production in cultured cells [1] | relative inhibitory potency for CaM kinase II (CaM kinase II [2]) | GPBP kinase activity in vitro (autophosphorylation) (recombinant human GPBP [3]) | binding of GPBP to the peptide (recombinant human GPBP [4]) | amyloid-like matter formation (thioflavin T or Congo red staining) (NZW mice; [6]) | fibrotic reaction in glomeruli (NZW mice; [6]) | fuchsinophilic material at the subendothelial space (NZW mice; [6]) | material deposited in the glomerulus of suspected collagenous nature (NZW mice; NZW treated with DAB-Am-4 and peptide 20 μg/g i.p.) | inhibition of CaM kinase II (CaM kinase II [5]) | synergistic inhibitory effect on GPBP kinase activity (recombinant human GPBP [3]; combined with Ca^2+CaM) | synergistic inhibitory effect on GPBP kinase activity (recombinant human GPBP [3]; combined with KN62)
1 | COc1ccc(S(=O)(=O)N(CCO)c2ccccc2CN(C)CC=Cc2ccc(Cl)cc2)cc1 [KN93, 2-[N-(2-hydroxyethyl)-N-(4-methoxybenzenesulfonyl)]amino-N-(4-chlorocinnamyl)-N-methylbenzylamine] | reduced cell conformer production | more potent inhibitor than KN62 | efficiently impaired | – | – | – | – | – | – | – | –
2 | Ac-KGKPGDTGPPAAGAVMRGFVFT-NH2 [GPpep1bov] | – | – | – | did not display binding capacity | – | – | – | – | – | – | –
3 | LATLSHCIELMVKR (not fully specified (N-terminus, C-terminus)) [Q2] | reduction in conformer production; also recorded: efficiently inhibits; also recorded: more effective inhibiting cell conformer production than Q4 | – | efficiently inhibited | – | efficiently inhibited amyloid-like matter formation | glomeruli virtually devoid of fibrotic reaction | unable to reduce | sharply reduced | efficiently inhibited | no cooperative inhibitory effect | no cooperative inhibitory effect
